This note sets out measurements from PMC11048566, “The Development of a Regulator of Human Serine Racemase for N-Methyl-D-aspartate Function” (Biomedicines, 2024).

Each structure is given as a SMILES string.

The test system of assay [1] is MK-801-induced hyperactivity. In words: Open field test in MK-801-treated mice. It is filed as in vivo, C57BL/6J male mice. The following applies: oral gavage 20 min before 0.2 mg/kg MK-801 IP; p < 0.001, n = 8. The protocol:
(§1) For behavioral studies, α12G was dissolved in 35% PEG-400 and administrated by oral gavage 20 min prior to the MK-801 insult. MK-801 (Sigma-Aldrich, St. Louis, MO, USA) was administrated via intraperitoneal (IP) injection 20 min prior to the behavioral tests, with the dosage of 0.2 mg/kg for the open field test and novel object recognition test and 0.3 mg/kg for the prepulse inhibition test.
C57BL/6J male mice were randomly assigned into six groups, 7–12 mice per group, (1) saline control, (2) MK-801, (3) 1 mg/kg α12G + MK-801, (4) 3 mg/kg α12G + MK-801, (5) 10 mg/kg α12G + MK-801, and (6) 30 mg/kg α12G + MK-801. The mice were placed in a Plexiglas cage (37.5 × 21.5 × 18 cm), and their spontaneous locomotor activities were measured for 60 min using a Photobeam Activity System (PAS) open field (San Diego Instruments, San Diego, CA, USA). The total photo beam breaks of each mouse were measured as an index of locomotor activity.

The target in assay [2] is D-amino acid oxidase (DAAO) (Homo sapiens, UniProt P14920). In words: DAAO enzymatic assay. It counts as biochemical. To be noted: 5 mM D-serine, pH 8.5. The protocol: A reaction mixture for the DAAO assay, with a final volume of 100 µL was made with 1 µL 2 times serially diluted α12G (4 µM to 7.8 nM), 45 µM FAD, 10 units of HRP, 60 ng DAAO, 10 mM Amplex Red^TM, 5 mM D-serine, and 100 mM Tris HCl (pH = 8.5). All reactions were performed in duplicates. The fluorescence was detected by a fluorometric meter (TECAN Infinite 200). The racemization percentage was calculated as follows: activity % = (Fsample, 20 min − Fsample, 0 min)/(Fblank, 20 min − Fblank, 0 min) × 100%.

Assay [3] has as its system MK-801-induced PPI deficit. In words: Prepulse inhibition test in MK-801-treated mice. It is filed as in vivo, C57BL/6J male mice. To be noted: 1 mg/kg oral, 0.3 mg/kg MK-801 IP; PPI 6 and PPI 10; p < 0.05, n = 14. The procedure: as §1
C57BL/6J male mice were randomly assigned into five groups, 6–21 mice per group, (1) saline control, (2) MK-801, (3) 1 mg/kg α12G + MK-801, (4) 3.5 mg/kg α12G + MK-801, and (5) 10 mg/kg α12G + MK-801. Prepulse inhibition (PPI), a measurement of sensorimotor gating, served as a biomarker of schizophrenia. Using the SR-LAB startle apparatus (San Diego Instruments, San Diego, CA, USA), the PPI ratio with startle response was elicited by various acoustic stimuli. Each C57BL/6J male mouse was placed in an acrylic cylinder in a dark and sound-insulated chamber. With a constant 65 dB background noise, the session comprised a 5 min acclimation period followed by 4 blocks including a total of 64 trials. […] The ratio of PPI was calculated from the startle response by the following formula: PPI % = 100 × [(PA score) − (pp-P score)]/(PA score), while the PA score was averaged from PA values in the two middle blocks.

The test system of assay [4] is MK-801-induced memory impairment. Briefly: Novel object recognition test in MK-801-treated mice. The following applies: 10 mg/kg oral, 0.2 mg/kg MK-801 IP; p < 0.01, n = 8. It is filed as in vivo, C57BL/6J male mice. The procedure: as §1
C57BL/6J male mice were randomly assigned into five groups, 6–8 mice per group, (1) saline control, (2) MK-801, (3) 1 mg/kg α12G + MK-801, (4) 3 mg/kg α12G + MK-801, and (5) 10 mg/kg α12G + MK-801. A novel object recognition test (NOR) was conducted in a square chamber (40 × 40 × 40 cm) under 15–20 lux light intensity, and a digital camera was used to record the behaviors. The test consisted of two sessions. In session I, mice were allowed to explore the chamber with two identical objects (yellow square Lego bricks) for 5 min and were then moved to the home cage for 5 min. In session II, mice were allowed to explore the chamber with one object kept the same (familiar object) and the other replaced with a novel object (blue circular bottle cap) for 10 min. The interaction of mice with both the objects (familiar vs. novel) was recorded, and the discrimination index was calculated with the following formula:Discrimination index = Time (novel object) − Time (familiar object)/Total exploring time

The next assay deals with T1, hSR (Homo sapiens, UniProt Q9GZT4).
T1 construct: 6xHis (C); made in house; host or cells: E. coli BL21 (pET42b-hSR)
T1 sequence (Q9GZT4 1-340): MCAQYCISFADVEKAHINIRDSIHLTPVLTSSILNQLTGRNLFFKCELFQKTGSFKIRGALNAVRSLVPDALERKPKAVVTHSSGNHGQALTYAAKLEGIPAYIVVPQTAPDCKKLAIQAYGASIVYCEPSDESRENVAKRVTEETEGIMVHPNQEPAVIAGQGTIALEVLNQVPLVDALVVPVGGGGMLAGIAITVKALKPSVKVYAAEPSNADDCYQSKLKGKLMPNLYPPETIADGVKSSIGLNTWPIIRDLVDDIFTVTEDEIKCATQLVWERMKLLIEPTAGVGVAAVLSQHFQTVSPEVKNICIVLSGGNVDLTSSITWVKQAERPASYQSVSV
Briefly: Intrinsic tryptophan fluorescence (ITF) binding assay. To be noted: 0.25 mM ATP, Hill slope model. The procedure:
First, 30 µL of 2 µM hSR protein was added into 270 µL buffer (100 mM Tris-HCl, pH 8.0, 1 mM MgCl2, 0.25 mM ATP, 50 µM PLP, 10% DMSO) with ligand and subsequently reacted for 20 min at room temperature. All samples were measured in triplicates and excited at 282 nm. The emission spectra were measured with a 5 nm bandwidth resolution at 300 to 400 nm wavelengths by a Varioskan™ LUX multimode microplate reader (Thermo Fisher Scientific, Lagoas Park, Porto Salvo, Portugal). The fluorescence intensity collected at 304 nm was analyzed using GraphPad Prism 8 software (Dotmatics, Boston, MA, USA). The dissociation constant (Kd) was derived by specific binding with the Hill slope model: Y = Bmax × X^n/(Kd^n + X^n), with X being the ligand concentration, maximum number of binding sites (Bmax) being the maximum specific binding, and n being Hill slope.
The Hill coefficient (n) of 1.28 is close to n = 1, indicating a noncooperative binding.

Sequence of D-amino acid oxidase (DAAO) (P14920 whole entry, species assumed): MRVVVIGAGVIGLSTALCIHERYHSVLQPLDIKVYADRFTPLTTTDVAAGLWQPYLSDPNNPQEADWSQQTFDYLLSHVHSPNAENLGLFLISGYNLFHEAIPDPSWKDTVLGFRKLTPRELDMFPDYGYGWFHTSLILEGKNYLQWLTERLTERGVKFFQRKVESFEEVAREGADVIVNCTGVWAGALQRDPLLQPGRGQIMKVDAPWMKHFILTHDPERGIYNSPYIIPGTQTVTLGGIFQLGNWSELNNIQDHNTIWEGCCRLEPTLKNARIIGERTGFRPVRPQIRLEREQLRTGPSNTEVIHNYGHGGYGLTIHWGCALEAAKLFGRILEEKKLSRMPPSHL

Regarding `O=C(Oc1cc(C(=O)Oc2cc(C(=O)O[C@H]3OC[C@@H](OC(=O)c4cc(O)c(O)c(OC(=O)c5cc(O)c(O)c(OC(=O)c6cc(O)c(O)c(O)c6)c5)c4)[C@H](OC(=O)c4cc(O)c(O)c(OC(=O)c5cc(O)c(O)c(OC(=O)c6cc(O)c(O)c(O)c6)c5)c4)[C@H]3OC(=O)c3cc(O)c(O)c(OC(=O)c4cc(O)c(O)c(OC(=O)c5cc(O)c(O)c(O)c5)c4)c3)cc(O)c2O)cc(O)c1O)c1cc(O)c(O)c(O)c1` [α12G, (2R,3R,4S,5R)-tetrahydro-2H-pyran-2,3,4,5-tetrayl tetrakis(3-((3,4-dihydroxy-5-((3,4,5-trihydroxybenzoyl)oxy)benzoyl)ox)-4,5-dihydroxybenzoate)], the “Effect on MK-801-induced hyperactivity (locomotor activity)” value in assay [1] was “alleviated the MK-801-induced hyperactivity”. The compound further registered an IC50 in assay [2] of 160 nM. The “Effect on PPI deficits” value in assay [3] is on record as “significantly alleviate PPI deficits”. The “Effect on MK-801-induced memory impairment (novel object recognition)” value in assay [4] is “attenuated this MK-801-induced memory impairment”. On hSR, this compound yielded a Bmax of 96.86 fmol/mg. Besides, the Kd at hSR (read-out: binding affinity (Kd)) stood at 240 nM.

One may read the IC50 as the midpoint of a concentration-inhibition curve. One may read the Kd as a measure of binding affinity in units of concentration.
